Values quoted from earlier work as cited in patent US20060024422A1, “Salt substitute compositions having N-neohexyl-a-aspartyl-l- phenylalanine methyl ester for modifying flavor and methods of manufacturing the same” (Cumberland Packing Corp., priority 2004, published 2006).

Conditions: on a weight basis

Compound: COC(=O)[C@H](Cc1ccccc1)NC(=O)[C@H](CC(=O)O)NCCC(C)(C)C [neotame, N-[N-(3,3-dimethylbutyl)-L-α-aspartyl]-L-phenylalanine 1-methyl ester]
- Sweetness relative to sucrose: approximately 8,000 times
